From ChEMBL document CHEMBL4765354, “Structure guided design of potent indole-based ATX inhibitors bearing hydrazone moiety with tumor suppression effects” (Eur J Med Chem, 2020) come the findings set out here.

The subject of test [1] is MCF7. Kind of test: Antiproliferative activity against human MCF7 cells measured after 72 hrs by MTT assay. The class given is functional, cell-based. The conditions noted are these: MCF7, 72 h. On the technique in general: Tetrazolium dyes change colour on reduction, which living cells bring about.
In test [2] the test system is NCI-H2228. Nature of the test: Antiproliferative activity against human NCI-H2228 cells measured after 72 hrs by MTT assay. The class given is functional, cell-based. The following applies: NCI-H2228, 72 h.
Test [3] has as its system A549. Kind of test: Antiproliferative activity against human A549 cells measured after 72 hrs by MTT assay. Format: functional, cell-based. The conditions noted are these: A549, 72 h.
For test [4], the system named is MDA-MB-231. Nature of the test: Antiproliferative activity against human MDA-MB-231 cells measured after 72 hrs by MTT assay. Format: functional, cell-based. The following applies: MDA-MB-231, 72 h.
Test [5] addresses Autotaxin (Homo sapiens, UniProt Q13822). Nature of the test: Inhibition of human C-terminal His6-tagged ATX beta expressed in Sf9 insect cells using FS-3 as substrate preincubated for 45 mins followed by substrate addition and measured at 1 min interval for 30 mins by fluorescence assay.

pIC50: −log10 of the molar value.

In general, pIC50 refers to the IC50 on a negative log10 scale, so that one unit is a factor of ten. Low values mean a high IC50, high ones a low IC50. With `O=C(CCN1CCN(C(=O)OCc2cc(Cl)cc(Cl)c2)CC1)c1ccc2[nH]c(=O)oc2c1`, the pIC50 was 5.64 in test [1], 4.95 in test [2], 5.09 in test [3] and 5.38 in test [4].

For `CCn1cc(/C(=N/Nc2nc(-c3ccc(OC)cc3)c(C#N)s2)C(F)(F)F)c2cc(-c3nc(CN4CCOCC4)cs3)ccc21`, the pIC50 in test [3] was less than 4.82; in test [5] it was 5.69; in test [4] it was 5.29.

With `CCn1cc(/C(=N/Nc2nc(-c3ccc(F)cc3)c(C#N)s2)C(F)(F)F)c2cc(-c3nc(CN4CCC(O)CC4)cs3)ccc21`, the pIC50 in test [1] is 5.29; in test [3], 4.99; in test [5], 5.69.

For `CCN1CCN(Cc2csc(-c3ccc4c(c3)c(/C(=N/Nc3nc(-c5ccc(Cl)cc5)c(C#N)s3)C(F)(F)F)cn4CC)n2)CC1`, the pIC50 in test [1] was 5.24; in test [2], less than 4.82; in test [3], 4.86; in test [5], 5.67; in test [4] it was 5.49.

On to `CCn1cc(/C(=N/Nc2nc(-c3ccc(OC)cc3)c(C#N)s2)C(F)(F)F)c2cc(-c3nc(CN4CCC(C)CC4)cs3)ccc21`, for which the pIC50 in test [1] is 5.65; in test [3] it was 5.01; in test [5], less than 5.00.

`CCn1cc(/C(=N/Nc2nc3ccccc3s2)C(F)(F)F)c2cc(-c3nc(CN4CCCC4)cs3)ccc21`: the pIC50 in test [1] is 5.75; in test [2] it was 5.20; in test [3] it was 5.10; in test [5] it was 6.90.

`CCN1CCN(Cc2csc(-c3ccc4c(c3)c(/C(=N/Nc3nc(-c5ccc(F)cc5)c(C#N)s3)C(F)(F)F)cn4CC)n2)CC1`: the pIC50 in test [1] was 5.36; in test [3], less than 4.82; in test [5], 5.81; in test [4], 5.57.

As for `CCn1cc(/C(=N/Nc2nc(-c3ccc(F)cc3)c(C#N)s2)C(F)(F)F)c2cc(-c3nc(CN4CCN(CCO)CC4)cs3)ccc21`, the pIC50 in test [1] is 5.49; in test [2] it was less than 4.82; in test [3] it was 5.14; in test [5] it was 6.11.

Regarding `CCn1cc(/C(=N/Nc2nc(-c3ccc(OC)cc3)c(C#N)s2)C(F)(F)F)c2cc(-c3nc(CN4CCC(O)CC4)cs3)ccc21`, the pIC50 in test [1] is 5.86; in test [2], less than 4.82; in test [5], 6.25; in test [4], 5.40.

Take `CCn1cc(/C(=N/Nc2nc(-c3ccc(Cl)cc3)c(C#N)s2)C(F)(F)F)c2cc(-c3nc(CN4CCC(O)CC4)cs3)ccc21`: the figures for the pIC50 in test [3], in test [5] and in test [4] were less than 4.82, 5.84 and 5.63, respectively.

Compound `CCn1cc(/C(=N/Nc2nc(-c3ccc(F)cc3)c(C#N)s2)C(F)(F)F)c2cc(-c3nc(CN4CCC[C@H]4CO)cs3)ccc21` showed a pIC50 in test [5] of 5.28.

`Cc1[nH]c2cc(F)c(N3CCC(C(=O)N4CCOCC4)CC3)cc2c1/C=N/Nc1nc(-c2ccc(F)cc2)c(C#N)s1`: the pIC50 was 5.78 in test [1], less than 4.82 in test [2], 6.98 in test [5] and 5.44 in test [4].

On to `CCN1CCN(Cc2csc(-c3ccc4c(c3)c(/C(=N/Nc3nc(-c5ccc(OC)cc5)c(C#N)s3)C(F)(F)F)cn4CC)n2)CC1`, for which the pIC50 in test [1] was 5.33; in test [3], less than 4.82; in test [5], 6.03.

For `CCn1cc(/C(=N/Nc2nc(-c3ccc(OC)cc3)c(C#N)s2)C(F)(F)F)c2cc(-c3nc(CN4CCC[C@H]4C(=O)O)cs3)ccc21`, the pIC50 in test [1] was 5.82; in test [3], less than 4.82; in test [5], 6.01; in test [4], 5.91.

For `CCn1cc(/C(=N/Nc2nc(-c3ccc(Cl)cc3)c(C#N)s2)C(F)(F)F)c2cc(-c3nc(CN4CCC[C@H]4CO)cs3)ccc21`, the pIC50 in test [2] was less than 4.82; in test [5], 5.85; in test [4], 5.92.

Turning to `CCn1cc(/C(=N/Nc2nc3ccccc3s2)C(F)(F)F)c2cc(-c3nc(CN4CCOCC4)cs3)ccc21`, the pIC50 is 5.56 in test [1], 5.03 in test [3], 6.70 in test [5] and 5.14 in test [4].

Turning to `CCn1cc(/C(=N/Nc2nc(-c3ccc(Cl)cc3)c(C#N)s2)C(F)(F)F)c2cc(-c3nc(CN4CCCC4)cs3)ccc21`, the pIC50 in test [1] was 5.30; in test [3], less than 4.82; in test [5], 5.61; in test [4], 5.81.

Consider `CCn1cc(/C(=N/Nc2nc3ccccc3s2)C(F)(F)F)c2cc(-c3nc(CN4CCC[C@H]4C(=O)O)cs3)ccc21`, for which the pIC50 was 5.72 in test [1], less than 4.82 in test [3], 7.14 in test [5] and 5.46 in test [4].

As to `CCN1CCN(C(=O)C2CCN(c3cc4c(/C=N/Nc5nc(-c6ccc(F)cc6)c(C#N)s5)c(C)[nH]c4cc3F)CC2)CC1`, the pIC50 in test [3] is less than 4.82; in test [5] it was 6.80; in test [4] it was 5.94.

On to `CCn1cc(/C(=N/Nc2nc(-c3ccc(OC)cc3)c(C#N)s2)C(F)(F)F)c2cc(-c3nc(CN4CCN(C)CC4)cs3)ccc21`, for which the pIC50 in test [1] is 5.55; in test [2], 5.59; in test [3], 5.31; in test [5], 5.73; in test [4] it was 5.09.

Consider `CCn1cc(/C(=N/Nc2nc(-c3ccc(F)cc3)c(C#N)s2)C(F)(F)F)c2cc(-c3nc(CN4CCOCC4)cs3)ccc21`, for which the pIC50 is 5.64 in test [1]; less than 4.82 in test [2]; less than 4.82 in test [3]; 5.63 in test [5]; 5.30 in test [4].

`CCn1cc(/C(=N/Nc2nc(-c3ccc(F)cc3)c(C#N)s2)C(F)(F)F)c2cc(-c3nc(CN4CC(O)C4)cs3)ccc21`: the pIC50 in test [1] was 5.75; in test [3], 5.16; in test [5], 5.90.

Take `CCn1cc(/C(=N/Nc2nc(-c3ccc(F)cc3)c(C#N)s2)C(F)(F)F)c2cc(-c3nc(CN4CCN(C)CC4)cs3)ccc21`: the pIC50 was 5.68 in test [1], 4.93 in test [3] and 5.52 in test [5].

For the compound `CCn1cc(/C(=N/Nc2nc(-c3ccc(OC)cc3)c(C#N)s2)C(F)(F)F)c2cc(-c3nc(CN4CCC[C@H]4CO)cs3)ccc21`, the pIC50 in test [1] is 5.37; in test [3], 4.96; in test [5], 6.06.

With `CCn1cc(/C(=N/Nc2nc(-c3ccc(F)cc3)c(C#N)s2)C(F)(F)F)c2cc(-c3nc(CN4CCCCC4)cs3)ccc21`, the pIC50 was 5.80 in test [1]; 5.24 in test [2]; less than 4.82 in test [3]; 5.46 in test [5]; 5.26 in test [4].

Consider `CCn1cc(/C(=N/Nc2nc3ccccc3s2)C(F)(F)F)c2cc(-c3nc(CN4CCC(C)CC4)cs3)ccc21`, for which the pIC50 in test [2] was less than 4.82; in test [5], 6.47; in test [4] it was 5.68.

`Cc1[nH]c2cc(F)c(N3CCC(C(=O)N4CCCC4)CC3)cc2c1/C(=N/Nc1nc(-c2ccc(F)cc2)c(C#N)s1)C(F)(F)F`: the pIC50 was 6.12 in test [1], less than 4.82 in test [2], 5.04 in test [3] and 7.24 in test [5].

Regarding `CCn1cc(/C(=N/Nc2nc(-c3ccc(OC)cc3)c(C#N)s2)C(F)(F)F)c2cc(-c3nc(CN4CCCC4)cs3)ccc21`, the pIC50 in test [2] was less than 4.82; in test [3] it was 4.86; in test [5], 5.52; in test [4], 5.29.

`CCn1cc(/C(=N/Nc2nc(-c3ccc(OC)cc3)c(C#N)s2)C(F)(F)F)c2cc(-c3nc(CN4CC(O)C4)cs3)ccc21`: the pIC50 in test [1] is less than 4.82; in test [2], less than 4.82; in test [3], less than 4.82; in test [5] it was 6.04; in test [4] it was 5.61.

For `CCn1cc(/C(=N/Nc2nc(-c3ccc(Cl)cc3)c(C#N)s2)C(F)(F)F)c2cc(-c3nc(CN4CCCCC4)cs3)ccc21`, the pIC50 in test [5] was 5.22.

With `CCn1cc(/C(=N/Nc2nc(-c3ccc(F)cc3)c(C#N)s2)C(F)(F)F)c2cc(-c3nc(CN4CCC[C@H]4C(=O)O)cs3)ccc21`, the pIC50 in test [1] was 6.19; in test [2], less than 4.82; in test [3], less than 4.82; in test [5] it was 6.21; in test [4], 5.90.

With `CCn1cc(/C(=N/Nc2nc(-c3ccc(Cl)cc3)c(C#N)s2)C(F)(F)F)c2cc(-c3nc(CN4CCN(C)CC4)cs3)ccc21`, the figures for the pIC50 in test [2], in test [5] and in test [4] were less than 4.82, 5.92 and 5.81, respectively.

Regarding `CCn1cc(/C(=N/Nc2nc(-c3ccc(Cl)cc3)c(C#N)s2)C(F)(F)F)c2cc(-c3nc(CN4CC(O)C4)cs3)ccc21`, the pIC50 in test [1] was less than 4.82; in test [2], less than 4.82; in test [5], 5.61; in test [4] it was 5.47.

In the case of `CCn1cc(/C(=N/Nc2nc(-c3ccc(Cl)cc3)c(C#N)s2)C(F)(F)F)c2cc(-c3nc(CN4CCC(C)CC4)cs3)ccc21`, the pIC50 in test [5] was 5.38.

Regarding `CCn1cc(/C(=N/Nc2nc3ccccc3s2)C(F)(F)F)c2cc(-c3nc(CN4CCCCC4)cs3)ccc21`, the pIC50 in test [1] was 5.51; in test [2] it was 5.10; in test [3], less than 4.82; in test [5], 6.97.

For the compound `CCn1cc(/C(=N/Nc2nc3ccccc3s2)C(F)(F)F)c2cc(-c3nc(CN4CCN(C)CC4)cs3)ccc21`, the pIC50 in test [1] is 5.56; in test [2] it was 5.07; in test [3], 5.13; in test [5] it was 6.94; in test [4] it was 5.84.

Take `CCn1cc(/C(=N/Nc2nc(-c3ccc(F)cc3)c(C#N)s2)C(F)(F)F)c2cc(-c3nc(CN4CCCC4)cs3)ccc21`: the pIC50 in test [1] is 5.55; in test [2], 5.20; in test [3], less than 4.82; in test [5], 5.88; in test [4], 5.63.

As for `CCc1nc2c(C)cc(N3CCN(CC(=O)N4CC(O)C4)CC3)cn2c1N(C)c1nc(-c2ccc(F)cc2)c(C#N)s1` [ZIRITAXESTAT], the pIC50 in test [1] is 5.08; in test [2], less than 4.82; in test [3], less than 4.82; in test [4], 5.20.
